Results as given in patent US10865196B2, “Compounds for treatment of cancer” (University of Tennessee Research Foundation, priority 2008, dated 2020).
Like-named read-outs stand apart in the source and are kept apart here.

Experiments:
[1] = tested on: NCI/ADR-RES; experiment: SRB antiproliferation assay, P-gp over-expressing NCI/ADR-RES
[2] = tested on: OVCAR-8; experiment: SRB antiproliferation assay, OVCAR-8 ovarian cancer; settings: Homo sapiens, OVCAR-8, read-out: IC50 OVCAR-8
[3] = tested on: prostate cancer cells (LNCaP, PC-3, DU-145, PPC-1); experiment: SRB assay, prostate cancer cells; assay type: cell-based, human; settings: for IC50: Homo sapiens, range over prostate cancer cell lines, read-out: IC50 values against prostate cancer cells
[4] = tested on: melanoma cells; experiment: SRB assay, melanoma cells; assay type: cell-based; settings: range over melanoma cell lines; read-out: IC50 values against melanoma cells
Procedure: (§1) For melanoma assays, one human melanoma cell line (A375) and one mouse melanoma cell line (B16-F1) were used. […] Fibroblast cells were used as a control to determine the selectivity of these compounds against melanoma. Human dermal fibroblast cells were purchased from Cascade Biologics, Inc., Portland, Oreg., USA. […] Cells were exposed to a wide range of concentrations for 48 h in round-bottomed 96-well plates. […] After cells were air-dried overnight and stained with SRB solution, total proteins were measured at 560 nm with a plate reader.

[5] = tested on: LNCaP; experiment: SRB antiproliferation assay, LNCaP prostate cancer; settings: read-out: IC50 LNCaP, SRB
[6] = tested on: B16-F1; experiment: SRB antiproliferation assay, B16-F1 melanoma; assay type: cell-based, mouse; settings: Mus musculus, read-out: IC50 B16-F1 (converted)
Description: (§2) For melanoma assays, one human melanoma cell line (A375) and one mouse melanoma cell line (B16-F1) were used. […] Fibroblast cells were used as a control to determine the selectivity of these compounds against melanoma. Human dermal fibroblast cells were purchased from Cascade Biologics, Inc., Portland, Oreg., USA.

[7] = tested on: A375; experiment: SRB antiproliferation assay, A375 melanoma; assay type: cell-based, human; settings: read-out: IC50 A375 (converted)
Description: as §2

[8] = tested on: DU 145; experiment: SRB antiproliferation assay, DU 145 prostate cancer; settings: read-out: IC50 DU 145, SRB
[9] = tested on: PC-3; experiment: SRB antiproliferation assay, PC-3 prostate cancer; settings: read-out: IC50 PC-3, SRB
[10] = tested on: PPC-1; experiment: SRB antiproliferation assay, PPC-1 prostate cancer; settings: read-out: IC50 PPC-1, SRB
[11] = tested on: melanoma (A375, B16-F1) and prostate cancer cells (DU145, PC-3, LNCaP, PPC-1); experiment: SRB assay, range over melanoma and prostate cancer cell lines; assay type: cell-based; settings: for IC50: range over the examined cell lines, read-out: IC50 over melanoma and prostate cancer cell lines
Procedure: as §1

[12] = tested on: WM164; experiment: SRB antiproliferation assay, WM-164 melanoma; assay type: cell-based; settings: Homo sapiens
[13] = tested on: Human dermal fibroblast cells; experiment: SRB assay, fibroblast control cells; assay type: cell-based
Procedure: as §1

| SMILES | IC50 [5] [nM] | IC50 ([6]; B16-F1, SRB) [nM] | IC50 ([7]; Homo sapiens, A-375, SRB) [nM] | IC50 [8] [nM] | IC50 [9] [nM] | melting point [°C] | IC50 [10] [nM] | also measured |
| --- | --- | --- | --- | --- | --- | --- | --- | --- |
| COc1cc(C(=O)c2cccc(-c3ccccc3)n2)cc(OC)c1OC |  |  |  |  |  |  |  | IC50 ([1]; Homo sapiens, NCI/ADR-RES, read-out: IC50 NCI/ADR-RES): 13 ± 0.8 nM; IC50 [2]: 33 ± 3 nM |
| COc1cc(C(=NC#N)c2csc(-c3ccccc3)n2)cc(OC)c1OC |  |  |  |  |  |  |  | Resistance factor ([1]; NCI/ADR-RES vs OVCAR-8): 0.4 |
| COc1cc(C(=O)c2csc(-c3ccc(CN)cc3)n2)cc(OC)c1OC |  |  |  |  |  |  |  | IC50 [2]: 26 ± 2 nM |
| COc1cc(C(=O)c2csc(Nc3ccccc3)n2)cc(OC)c1OC [5-a] |  |  |  |  |  |  |  | activity in prostate cancer cell lines, in words [3]: potent activity |
| COc1cc(C(=O)c2csc(Nc3ccc(F)cc3)n2)cc(OC)c1OC [5-c] |  |  |  |  |  |  |  | activity in prostate cancer cell lines, in words [3]: potent activity |
| COc1cc(C(=O)c2csc(Nc3ccc(Cl)cc3)n2)cc(OC)c1OC [5-d] |  |  |  |  |  |  |  | activity in prostate cancer cell lines, in words [3]: potent activity |
| COc1cc(C(=O)c2csc(-c3ccccc3F)n2)cc(OC)c1OC [8l, [2-(2-Fluorophenyl)-thiazol-4-yl]-(3,4,5-trimethoxyphenyl)-methanone] | 53 | 27 | 30 | 114 | 82 | 90 to 102 | 52 | IC50 [4]: 27 to 30 nM; IC50 [3]: 52 to 114 nM |
| COc1cc(C(=O)c2c[nH]c(-c3cn(S(=O)(=O)c4ccccc4)c4ccccc34)n2)cc(OC)c1OC [17yab, (2-(1-(Phenylsulfonyl)-1H-indol-3-yl)-1H-imidazol-4-yl)(3,4,5-trimethoxyphenyl)methanone] | 234 | 539 | 481 | 592 | 148 |  | 209 | IC50 [12]: 468 nM |
| CC(=O)Nc1ccc(C2N[C@H](C(=O)Nc3ccc4c(c3)Cc3ccccc3-4)CS2)cc1 (stereo partly drawn) [ATCAA-2, reference compound] |  |  |  |  |  |  |  | IC50 ([5]; 96 h): 3500 ± 700 nM; IC50 [11]: 1600 to 3900 nM; IC50 ([7]; SRB, 48 h): 2100 ± 100 nM; IC50 ([8]; 96 h): 1900 ± 300 nM; IC50 ([9]; 96 h): 2100 ± 100 nM; IC50 ([10]; 96 h): 1600 ± 100 nM |
| COc1cc(C(=O)c2cscn2)cc(OC)c1OC [compound 10, Thiazol-4-yl-(3,4,5-trimethoxy-phenyl)-methanone] | > 20000 | > 100000 | > 100000 | > 20000 | > 20000 | 106 to 108 | > 20000 | antiproliferative activity against melanoma and prostate cancer cell lines, in words ([11]; compared with 8f or parent compounds): total loss of activity |
| COc1cc(/C(=N/O)c2csc(-c3ccccc3)n2)cc(OC)c1OC [compound 33, (Z)-(2-Phenylthiazol-4-yl)(3,4,5-trimethoxyphenyl)methanone oxime] |  |  |  |  |  | 150 to 153 |  | IC50 ([6]; B16-F1, 48 h, SRB, 48 h): 320 nM; IC50 [13]: 360 nM; IC50 ([7]; Homo sapiens, A-375, 48 h, SRB, 48 h): 180 nM |
| COc1cc(/C(=N\O)c2csc(-c3ccccc3)n2)cc(OC)c1OC [compound 34, (E)-(2-Phenylthiazol-4-yl)(3,4,5-trimethoxyphenyl)methanone oxime] |  |  |  |  |  | 176 to 177 |  | IC50 ([5]; 96 h): > 1000 nM; IC50 [13]: 10100 nM; IC50 ([8]; 96 h): > 1000 nM; IC50 ([9]; 96 h): > 1000 nM; IC50 ([10]; 96 h): > 1000 nM |
| COc1cc(/C(=N/N)c2csc(-c3ccccc3)n2)cc(OC)c1OC [compound 35, (Z)-4-(Hydrazono(3,4,5-trimethoxyphenyl)methyl)-2-phenylthiazole] |  |  |  |  |  | 117 to 119 |  | IC50 [13]: 1900 nM |
| COc1cc(/C(=N\N)c2csc(-c3ccccc3)n2)cc(OC)c1OC [compound 36, (E)-4-(Hydrazono(3,4,5-trimethoxyphenyl)methyl)-2-phenylthiazole] |  |  |  |  |  | 65 to 66 |  | IC50 [13]: 1000 nM |

The next lines start with results.

| IC50 [5] [nM] | IC50 ([6]; B16-F1, SRB) [nM] | IC50 ([7]; Homo sapiens, A-375, SRB) [nM] | IC50 [8] [nM] | IC50 [9] [nM] | melting point [°C] | IC50 [10] [nM] | SMILES | also measured |
| --- | --- | --- | --- | --- | --- | --- | --- | --- |
| 11 | 287 | 304 | 35 | 24 |  | 21 | COc1cc(C(=O)c2csc(-c3cccc(F)c3)n2)cc(OC)c1OC [8m, [2-(3-Fluorophenyl)-thiazol-4-yl](3,4,5-trimethoxyphenyl)-methanone] | IC50 [4]: 287 to 304 nM; IC50 [3]: 23 to 46 nM |
| 15 | 53 | 59 | 52 | 30 |  | 19 | COc1cc(C(=O)c2csc(-c3ccc(C#N)cc3)n2)cc(OC)c1OC [8q, 4-[4-(3,4,5-Trimethoxybenzoyl)-thiazol-2-yl]-benzonitrile] |  |
| 94 | 92 | 23 | 50 | 58 |  | 76 | COc1cc(C(=O)c2csc(-c3ccc(C(F)(F)F)cc3)n2)cc(OC)c1OC [8t, (2-(4-(Trifluoromethyl)-phenyl)-thiazol-4-yl)(3,4,5-trimethoxyphenyl)-methanone] |  |
| 44 | 32 | 13 | 21 | 18 |  | 21 | COc1cc(C(=O)c2csc(-c3ccc(Br)cc3)n2)cc(OC)c1OC [8u, [2-(4-Bromophenyl)-thiazol-4-yl]-(3,4,5-trimethoxyphenyl)-methanone] | IC50 [3]: 18 to 44 nM |
| 60 | 70 |  | 31 | 27 |  | 22 | CCc1ccc(-c2nc(C(=O)c3cc(OC)c(OC)c(OC)c3)cs2)cc1 [8v, [2-(4-Ethyl-phenyl)-thiazol-4-yl]-(3,4,5-trimethoxy-phenyl)-methanone] | IC50 [11]: 17 to 70 nM |
| > 20000 | > 100000 | > 100000 | > 20000 | > 20000 | 178 to 180 | > 20000 | COc1cc(C(=O)c2csc(-c3ccncc3)n2)cc(OC)c1OC [8x, [2-(Pyridin-4-yl)-thiazol-4-yl]-(3,4,5-trimethoxyphenyl)-methanone] |  |
| 2370 | 2300 | 4100 | 2810 | 2660 | 190 to 191 | 1190 | COc1cc(C(=O)c2csc(-c3ncccn3)n2)cc(OC)c1OC [8y, [2-(Pyrimidin-2-yl)-thiazol-4-yl]-(3,4,5-trimethoxyphenyl)-methanone] | IC50 [11]: 11800 to 41000 nM |
|  | 4900 | 3470 |  |  |  |  | Cc1ccc(-c2nc(C(=O)c3ccc(F)cc3)cs2)cc1 [11-11] | IC50 [12]: 4700 nM |
|  | > 10000 | > 10000 |  |  |  |  | O=C(c1ccc(OC(F)(F)F)cc1)c1csc(-c2ccccc2)n1 [13-13] | IC50 [12]: > 10000 nM |
|  | > 10000 | > 10000 |  |  |  |  | COc1ccc(C(=O)n2ccnc2-c2ccc(F)cc2)cc1 [24-24] | IC50 [12]: > 10000 nM |
